# Legend:
# [1] = test system: extracellular domain of the kit receptor; test: BIAcore binding to surfaces activated with kit receptor extracellular domain
# Description: SDS-PAGE analysis of the fractions from this column confirmed that EBP was co-eluted with the receptor binding activity.
# [2] = test system: granulation tissue in subcutaneously implanted wound chambers; test: Rat wound chamber assay (granulation tissue formation); assay type: in vivo
# Procedure: Male Sprague-Dawley specific pathogen free rats (300-350 g; Charles River Breeding Laboratories, Inc.) were used for this study. Rats were anesthetized with sodium pentobarbital (50 mg/kg body weight) by intraperitoneal injection. Using aseptic surgical technique, a 3 cm midline incision was made on the dorsal surface of the rat. A single pocket was formed under the panniculus carnosis by blunt dissection on one side of the animal. A 3 cm long×1 cm diameter sterile stainless steel wire mesh cylinder was then inserted subcutaneously. The wound chambers used were similar to those described by Schilling et. al. (Surgery 46, 702-710 (1959)) and utilized by Hunt et. al. (Am. J. Surg. 114, 302-307 (1967)) as wound healing models. The incision was closed with wound clips. The rats survived the operation well with no evidence of postoperative discomfort. Beginning 3 days after wound chamber implantation, the rats were randomly divided into 5 groups. At this time daily injections of 1) 10 μg CHO-derived EBP, 2) 1 μg CHO-derived EBP, 3) 8 μg E. coli derived EBP, 4) 5 μg recombinant platelet derived growth factor (PDGF), or 5) 0.1 ml sterile PBS and 1 mM CHAPS were begun and continued for a total of 9 days. The injections were made directly into the wound chamber through a silicone septum at the outer edge of the chamber. Twelve days after chamber implantation, the rats were sacrificed by CO2 asphyxiation. Immediately after sacrifice, the chambers were removed surgically and carefully opened. The enclosed granulation tissue was then weighed, and stored at -70° C. for future processing.
# Granulation tissue samples were thawed and homogenized with a Polytron homogenizer in 2 ml of ice-cold distilled water for approximately 1 minute. Next, 2 ml of ice-cold 10% trichloroacetic acid was added to the homogenate and incubated at 4° C. for 1 hour. The TCA-precipitated samples were centrifuged (500 g, 10 minutes) at 4° C., washed once with 2 ml of ice-cold 5% TCA, and finally washed with 2 ml of ice-cold 95% ethanol containing 50 mM sodium acetate. Samples were defatted twice with 2 ml of ethanol:ether (3:1, v/v) at 20° C. After each defatting procedure, samples were centrifuged (500×g, 10 minutes) and the supernate discarded. The pellet was then dissolved in 1N sodium hydroxide and brought up to a volume of 10 ml.
# Total protein was determined by taking an aliquot of the solubilized granulation tissue and assaying the sample according to the method of Bradford (Anal. Biochem. 72, 248-251 (1976)) Bovine serum albumin (Sigma Chemical Co., St. Louis, Mo.) was used for a protein standard curve.
# Total DNA content was determined as deoxy-ribose by the colorimetric method of Burton (Biochem. J. 62, 315 (1956)). Briefly, a 1 ml aliquot of the solubilized sample (in 1N NaOH) was neutralized with the addition of 0.5 ml of 2N HCl. A 1 ml aliquot of the neutralized solution was extracted in 10% perchloric acid at 90° C. for 15 minutes. A 1 ml portion of the final extract was added to 2 ml activated diphenylamine (Sigma Chemical, St. Louis, Mo.) reagent and absorbance at 600 nm was measured after overnight incubation at room temperature. Hydrolyzed calf thymus DNA (Sigma) was used to construct the standard curve. The DNA content was measured as a rough index of the number of cells in the wound chamber, with the realization that cell type and cell cycle status also influence DNA content.
# Total glycosaminoglycans (GAGs) were determined using chondroitin sulfate as a standard. A spectrophotometric assay for GAGs was run utilizing a change in absorption spectrum of the dye 1,9- dimethyl methylene blue (Farndale et al. Conn. Tiss. Res. 9, 247-248 (1982)).
# Total collagen content was determined as hydroxyproline (an index of collagen content) after hydrolysis of the solubilized granulation tissue in 6N HCl at 110° C. for 24 hours. […]
# eck receptor (p130^eck) = test: p130eck autophosphorylation in LIM 2405 cells; assay type: cell-based, human; settings: intact LIM 2405 cells, 10-15 min at 37° C.
# Procedure: The LIM 2405 colorectal carcinoma cell line (Whitehead et al. Immunol. and Cell Biol. 70, 227 (1992)) was maintained in RPMI 1640 containing 5% FBS, 1 μg/ml insulin, 10 μg/ml hydrocortisone and 10 μM α-thioglycerol, and subpassaged by trypsination and dilution (1:5) into fresh media. Prior to assay 2.5×10^5 LIM 2405 cells were seeded into 6-well dishes (Falcon #3046) and incubated for 24 hr at 37° C. The media was discarded and replaced with serum-free RPMI 1640 containing 0.03% BSA, 1 μg/ml insulin, 10 μg/ml hydrocortisone and 10 μM α-thioglycerol, then incubated for 12-18 hr. In some experiments the cell cultures were labelled with ^32 P-orthophosphate (2 mCi/ml) in phosphate-free RPMI 1640 (Flow) for 2-3 hr prior to treatment. Growth factor stock solutions were prediluted at varying concentrations into 2.0 ml of serum-free media, then warmed to 37° C. Cell cultures were removed from the incubator, and the supernatant media discarded. Treatments were promptly added and the cell cultures incubated at 37° C. for 10-15 min. The cultures were then removed from the incubator, placed on ice, and the culture supernatant aspirated.
# The treated cell cultures were chilled to 0° C. then washed once with ice-cold PBS (GIBCO). The residual PBS was aspirated and the cells were lysed by the addition of 1.0 ml of ice-cold RIPA buffer (10 mM sodium phosphate, pH 7.4, 150 mM sodium chloride, 0.1% sodium dodecyl sulfate, 1% NP-40, 1% deoxycholate, 1% Trasylol, 2 mM EDTA, 50 mM sodium fluoride and 100 mM sodium orthovanadate). After a 10 min incubation the lysates were transferred to 1.5 ml tubes and clarified by centrifugation for 30 min at 10,000×g. The clarified lysate supernatants were transferred to new tubes and immunoprecipitated with 1.0 μg/ml of affinity purified rabbit anti-Eck C-terminal domain antibody for 2 hr at 0° C. Immune complexes were adsorbed to Protein-G Sepharose beads (Pharmacia) at 4° C. for 30 min, washed twice with ice-cold RIPA buffer, once with 0.1M Tris-HCl, pH 8.0, containing 0.5M LiCl, and once with RIPA. The resulting immunoprecipitates were solubilized with SDS-PAGE sample buffer and stored for further analysis.
# The anti-eck immunoprecipitates from treated and untreated LIM 2405 cell lysates were resolved on 7.5% polyacrylamide gels as previously described (Boyle et al. Meth. Enzymol. 201, 110 (1991)). […] Immune complexes were detected by chemiluminescent exposure (ECL, Amersham) to Kodak X-OMAT X-ray film at room temperature for 0.5-5 min.
# Eck receptor immunoprecipitates from ^32 P-labelled LIM 2405 cells were resolved by SDS-PAGE, and the gel dried directly without fixation. After exposure to X-ray film the labelled eck receptor band was isolated and phosphoamino acid content determined as described (Boyle et al. Meth. Enzymol. 201, 110 (1991))
# [3] = 5 ug per chamber per day x 9 days, harvest day 12, mean ± SEM
# [4] = 5 ug per chamber per day x 9 days, harvest day 12, mean ± SEM, listed as rPDGF
substance,measurement,setting,value
rSCF: the kit ligand [reference compound],binding to BIAcore surfaces activated with the extracellular domain of the kit receptor,[1],could bind
PDGF [reference compound],DNA,[2]; [3],356 ± 64 µg
same,HYDROXY-PROLINE,[2]; [3],478.4 ± 85.9 µg
same,TOTAL GYLCOSAMINO-GLYCANS,[2]; [3],725.2 ± 104.4 µg
same,TOTAL PROTEIN,[2]; [3],7.46 ± 1.52 mg
same,WET WEIGHT,[2]; [3],417.4 ± 81.8 mg
same,DNA,[2]; [4],significantly increased
same,TOTAL GYLCOSAMINO-GLYCANS,[2]; [4],significantly increased
same,TOTAL PROTEIN,[2]; [4],significantly increased
same,WET WEIGHT,[2]; [4],significantly increased
same,increase in hydroxyproline content over control chambers,[2]; PDGF treated chambers (5 μg per day),82%
EGF: growth factor used to treat LIM 2405 cells as specificity control [reference compound],eck receptor phosphorylation,eck receptor (p130^eck),nor does EGF treatment induce eck phosphorylation
